Like-named read-outs stand apart in the source and are kept apart here.
How the values were obtained:
Mcl-1/Bim = Mcl-1/Bim (Homo sapiens, UniProt Q07820); assay: Mcl-1/Bim ELISA (GST-Mcl-1 binding to biotinylated Bim BH3 peptide); conditions: for selectivity profile Mcl-1 vs Bcl-xL in words: from Mcl-1/Bim and Bcl-xL/Bim ELISA
Procedure: (§1) ELISAs were performed using a modified version of a previously described procedure (Doi K et al. J. Biol. Chem. 2012, 287, 10224-10235). Briefly, 40 nM of biotinylated Bim BH3 peptide (Biomatik) in SuperBlock blocking buffer (Pierce) was incubated in high-binding capacity streptavidin-coated plates (Pierce) for 2 h. Compounds were diluted in 120 μl of PBS containing 10 nM of GST-Mcl-1 or GST-Bcl-xL in 1.5 mL tubes for 15 min. Wells were washed with wash buffer (PBS containing 0.05% Tween-20) and then 100 μL of the compound/GST-protein mixture was transferred to the wells. The plates were incubated for 2 h, and then the wells were washed with wash buffer. HRP-conjugated anti-GST antibody (Bethyl Laboratories) was diluted 1:2000 in SuperBlock and 100 μL was transferred to each well. The plate was incubated for 1 h, and then the wells were washed with wash buffer followed by PBS. 100 μL of SureBlue TMB Microwell Peroxidase Substrate (VWR) was added to each well and plates were developed for 5-10 min. 100 μL of 1 N HCl was added to each well to stop the reaction and absorbance was read at 450 nm using a μQuant plate reader (Bio-Tek).
(§2) ELISAs were performed using a similar procedure as previously described (Doi K, et al. J. Biol. Chem. 2012, 287, 10224-10235). Briefly, 40 nM of biotinylated Bim BH3 peptide (Biomatik) in SuperBlock blocking buffer (Pierce) was incubated in high-binding capacity streptavidin-coated plates (Pierce) for 2 h. Compounds were diluted in 120 μl of PBS containing 10 nM of GST-Mcl-1 or GST-Bcl-xL in 1.5 mL tubes for 15 min. Wells were washed with wash buffer (PBS containing 0.05% Tween-20) and then 100 μL of the compound/GST-protein mixture was transferred to the wells. The plates were incubated for 2 h, and then wells were washed with wash buffer. HRP-conjugated anti-GST antibody (Bethyl Laboratories) was diluted 1:2000 in SuperBlock and 100 μL was transferred to each well. The plate was incubated for 1 h, and then wells were washed with wash buffer followed by PBS. 100 μL of SureBlue TMB Microwell Peroxidase Substrate (VWR) was added to each well and plates were developed for 5-10 min. 100 μL of 1 N HCl was added to each well to stop the reaction and absorbance was read at 450 nm using μQuant plate reader (Bio-Tek).

Bcl-xL/Bim = Bcl-xL/Bim (Homo sapiens, UniProt Q07817); assay: Bcl-xL/Bim ELISA (GST-Bcl-xL binding to biotinylated Bim BH3 peptide)
Sequence of Bcl-xL/Bim (Q07817 whole entry): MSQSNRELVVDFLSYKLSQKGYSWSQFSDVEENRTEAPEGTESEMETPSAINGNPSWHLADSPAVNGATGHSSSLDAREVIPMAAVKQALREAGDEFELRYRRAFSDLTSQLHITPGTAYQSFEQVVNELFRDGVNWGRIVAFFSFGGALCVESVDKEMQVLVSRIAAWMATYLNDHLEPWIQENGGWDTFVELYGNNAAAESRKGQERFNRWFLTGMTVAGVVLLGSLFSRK
Procedure: as §1, §2

[1] = Table 2-B, n ≥ 3, read-out: Mcl-1/Bim IC50 (average ± SEM)
[2] = Table 3-A structure I, Mcl-1 at 10 nM, n ≥ 3, read-out: Mcl-1-Bim IC50 (average ± SEM)
[3] = Table 2-B, n ≥ 3 unless specified, read-out: Bcl-xL/Bim IC50 (average ± SEM)
[4] = Table 3-A structure I, Bcl-xL at 10 nM, n ≥ 3, read-out: Bcl-xL-Bim IC50 (average ± SEM)

Sequence of Mcl-1/Bim (Q07820 whole entry): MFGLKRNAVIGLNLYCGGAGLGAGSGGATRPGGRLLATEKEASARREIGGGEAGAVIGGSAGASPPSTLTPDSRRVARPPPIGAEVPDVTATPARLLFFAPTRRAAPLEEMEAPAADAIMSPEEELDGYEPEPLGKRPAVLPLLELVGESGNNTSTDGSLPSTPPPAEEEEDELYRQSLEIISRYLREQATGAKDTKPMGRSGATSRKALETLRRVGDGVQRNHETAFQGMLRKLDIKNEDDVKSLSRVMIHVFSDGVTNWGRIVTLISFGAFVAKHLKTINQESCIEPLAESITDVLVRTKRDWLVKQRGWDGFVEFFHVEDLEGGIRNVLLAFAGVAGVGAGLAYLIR

Row | Compound | IC50 (Mcl-1/Bim; [1]) [nM] | IC50 (Mcl-1/Bim; [2]) [nM] | IC50 (Bcl-xL/Bim; [3]) [nM] | IC50 (Bcl-xL/Bim; [4]) [nM] | selectivity profile Mcl-1 vs Bcl-xL in words (Mcl-1/Bim) | also measured
1 | O=C(c1ccc(C(F)(F)F)cc1O)c1[nH]c(Cl)c(Cl)c1-n1c(C(=O)c2ccc(C(F)(F)F)cc2O)cc(Cl)c1Cl [Compound 1-1] | – | – | – | – | dual Mcl-1 and Bcl-XL antagonists | –
2 | Cc1cc(O)c(C(=O)c2[nH]c(Cl)c(Cl)c2-n2c(C(=O)c3cc(Cl)c(C)cc3O)cc(Cl)c2Cl)cc1Cl [Compound 1-2, (4,4′,5,5′-Tetrachloro-1′H-1,3′-bipyrrole-2,2′-diyl)bis((5-chloro-2-hydroxy-4-methylphenyl)methanone)] | 2600 ± 600 | 2600 ± 600 | 2500 ± 400 | 2500 ± 400 | dual Mcl-1 and Bcl-XL antagonists | –
3 | O=C(c1ccc(OS(=O)(=O)C(F)(F)F)cc1O)c1[nH]c(Cl)c(Cl)c1-n1c(C(=O)c2ccc(OS(=O)(=O)C(F)(F)F)cc2O)cc(Cl)c1Cl [Compound 1-6, (4,4′,5,5′-tetrachloro-1′H-1,3′-bipyrrole-2,2′-diyl)bis(((2-hydroxy-4-hydroxytrifluoromethanesulfonate)-phenyl)methanone)] | 1000 ± 300 | 1000 ± 300 | 2500 ± 700 | 2100 ± 700 | – | IC50 (Mcl-1/Bim; read-out: IC50 to inhibit the binding of Mcl-1 to Bim): 1000 nM
4 | O=C(c1cc(Cl)c(O)cc1O)c1[nH]c(Cl)c(Cl)c1-n1c(C(=O)c2cc(Cl)c(O)cc2O)cc(Cl)c1Cl [Compound 1-8] | – | – | > 50000 | > 50000 | – | –
5 | O=C(c1ccc(SCc2ccccc2)cc1O)c1[nH]c(Cl)c(Cl)c1-n1c(C(=O)c2ccc(SCc3ccccc3)cc2O)cc(Cl)c1Cl [Compound 1-10, (4,4′,5,5′-Tetrachloro-1′H-1,3′-bipyrrole-2,2′-diyl)bis(((2-hydroxy-4-benzylthio)phenyl)methanone)] | – | 700 ± 200 | – | – | most potent dual Mcl-1 and Bcl-xL antagonists | IC50 (Bcl-xL/Bim; read-out: IC50 to inhibit Bcl-xL/Bim binding): 600 nM

Now from value to compound, other results behind:

Row | IC50 (Mcl-1/Bim; [1]) [nM] | IC50 (Mcl-1/Bim; [2]) [nM] | IC50 (Bcl-xL/Bim; [3]) [nM] | IC50 (Bcl-xL/Bim; [4]) [nM] | Compound | selectivity profile Mcl-1 vs Bcl-xL in words (Mcl-1/Bim) | also measured
6 | – | – | > 50000 | > 50000 | O=C(c1ccc(O)cc1O)c1[nH]c(Cl)c(Cl)c1-n1c(C(=O)c2ccc(O)cc2O)cc(Cl)c1Cl [Compound 1-7] | – | activity against Mcl-1/Bim in words (Mcl-1/Bim): lost potency
7 | – | 1800 ± 300 | – | 1200 ± 200 | CCOC(=O)CSc1ccc(C(=O)c2[nH]c(Cl)c(Cl)c2-n2c(C(=O)c3ccc(SCC(=O)OCC)cc3O)cc(Cl)c2Cl)c(O)c1 [Compound 1-9] | – | fold improvement of potency against Mcl-1/Bim (Mcl-1/Bim; 1-9 vs 1-15): 3.4 fold; fold enhancement of potency against Bcl-xL/Bim (Bcl-xL/Bim; 1-9 vs 1-15): over 83 fold
8 | 700 ± 100 | – | – | 600 ± 100 | COc1ccc(CSc2ccc(C(=O)c3[nH]c(Cl)c(Cl)c3-n3c(C(=O)c4ccc(SCc5ccc(OC)cc5)cc4O)cc(Cl)c3Cl)c(O)c2)cc1 [Compound 1-11] | – | –
9 | 37300 ± 3100 | – | > 50000 | – | CCOC(=O)CS(=O)(=O)c1ccc(C(=O)c2[nH]c(Cl)c(Cl)c2-n2c(C(=O)c3ccc(S(=O)(=O)CC(=O)OCC)cc3O)cc(Cl)c2Cl)c(O)c1 [Compound 1-12] | – | fold loss of potency against Mcl-1/Bim (Mcl-1/Bim; 1-15 and 1-13 vs 1-10, 1-14 vs 1-11, 1-16 vs 1-15, 1-12 vs 1-9, 1-22, 1-21, 1-20 vs 1-23, 1-37 and N-Me methoxy analogue vs (±)-1): 21 fold

— patent publication US10358454B2, “Marinopyrrole derivatives and methods of making and using same” (H. LEE MOFFITT CANCER CENTER AND RESEARCH INSTITUTE, INC., priority 2014, dated 2019)
